Structures can show the parent of a compound that is named as a salt.
How the values were obtained:
[1] = Solubility of the active ingredient in loading buffer systems and in water; type: physicochemical; conditions: for solubility in citrate buffer: citric acid (intraliposomal) and citric acid/sodium carbonate pH 7.5-8.0 (extraliposomal)
Source text: NH3, which is present in a reversible equilibrium with ammonium sulphate in the intraliposomal aqueous medium, attempts to migrate out through the liposome membrane and to leave behind an H^+. Sildenafil migrates in the opposite direction into the liposome, takes up the hydrogen ion H^+, becomes more hydrophilic thereby and therefore remains in the […]. In this way, sildenafil can be efficiently loaded into liposomes. This applies in a similar manner also to the sildenafil alternatives tadalafil and vardenafil.

[2] = Active loading of DPPC/cholesterol liposomes via H+ gradient; active ingredient and lipid content by rp-HPLC; type: physicochemical; conditions: two-stage variant; converted from the inclusion rate
Procedure: External loading of liposomes with sildenafil by means of H^+ gradient. The best inclusion rates were achieved under the following conditions. The lipids (molar DPPC:cholesterol ratio=55:45; in total 13 to 15 μmol per ml of aqueous phase) were dissolved in ethanol and this solution was injected into 125 mM ammonium sulphate solution. After spontaneous vesicle formation, the remaining, external ammonium sulphate solution was replaced by a 5% glucose solution and sildenafil citrate was added. In this way, an H^+ gradient formed between the inside and outside of the lipid vesicles. pH values below 2.5 are less suitable owing to resultant hydrolysis problems, and pH values greater than 5.5 are also not preferred, owing to the increasingly flat H^+ gradient. An aqueous 125 mM ammonium sulphate solution typically has a pH in the range of about 5-5.5. After removal of sildenafil which has not been included by means of gel filtration, both the active ingredient content and the lipid content were determined by means of rp-HPLC. Liposome size and distribution were determined by means of photon correlation spectroscopy (PCS). […]

| solubility in water ([1]; water) | SMILES | solubility in citrate buffer [1] | active ingredient per ml of liposomal suspension [2] |
| --- | --- | --- | --- |
| dissolves very readily | CCCc1nn(C)c2c(=O)[nH]c(-c3cc(S(=O)(=O)N4CCN(C)CC4)ccc3OCC)nc12 [sildenafil citrate] | insoluble or scarcely soluble |  |
|  | CCCc1nn(C)c2c(=O)[nH]c(-c3cc(S(=O)(=O)N4CCN(C)CC4)ccc3OCC)nc12 [sildenafil] | only poorly soluble or not soluble at all | 1000-1500 μg of active ingredient per ml of liposomal suspension |
